Literature values in article PMC8679591, “FAPI-74 PET/CT Using Either ^18F-AlF or Cold-Kit ^68Ga Labeling: Biodistribution, Radiation Dosimetry, and Tumor Delineation in Lung Cancer Patients” (Journal of Nuclear Medicine, 2021).

In the case of N[C@@H](C[C@H](CCC[18F])C(=O)O)C(=O)O [(S)-4-(3-^18F-fluoropropyl)-L-glutamic acid], the Effective dose is listed as 0.032 mSv/MBq. In the case of N[C@@H](Cc1ccc(OCC[18F])cc1)C(=O)O [O-(2-^18F-fluoroethyl)-L-tyrosine], the Effective dose is listed as 0.016 mSv/MBq. In the case of Cc1cn([C@H]2C[C@H]([18F])[C@@H](CO)O2)c(=O)[nH]c1=O [^18F-3′-deoxy-3′-^18F-fluorothymidine, 3′-deoxy-3′-^18F-fluorothymidine], the Effective dose is listed as 0.028 mSv/MBq. In the case of O=C(O)CC[C@H](NC(=O)N[C@@H](CCCCNC(=O)[C@H](Cc1ccc2ccccc2c1)NC(=O)c1ccc(CNC(=O)[C@H](CCC(=O)O)NC(=O)[C@H](CCC(=O)O)NC(=O)c2ccc([18F])nc2)cc1)C(=O)O)C(=O)O [^18F-PSMA-1007], the Effective dose is listed as 0.022 mSv/MBq. For C[N+](C)(CF)CCO [^18F-fluorocholine], the Effective dose is listed as 0.031 mSv/MBq. In the case of O=[N+]([O-])c1nccn1CC(O)C[18F] (centres unmarked) [^18F-fluoromisonidazole], the Effective dose is listed as 0.013 mSv/MBq. In the case of CNc1ccc(/C=C/c2ccc(OCCOCCOCC[18F])cc2)cc1 [^18F-flurbetaben], the Effective dose is given as 0.015 mSv/MBq. In the case of CC(C)(C)n1ncc(OCc2ccc(COCC[18F])cc2)c(Cl)c1=O [^18F-flurpiridaz], the Effective dose is given as 0.019 mSv/MBq. In the case of N#C[C@@H]1CCCN1C(=O)CNC(=O)c1ccnc2ccc(OCCCN3CCN(C(=O)CN4CCN(CC(=O)O)CCN(CC(=O)O)CCN(CC(=O)O)CC4)CC3)cc12 [^68Ga-FAPI-2, metal not drawn], the Effective dose is listed as 0.008–0.015 mSv/MBq. For N#C[C@@H]1CC(F)(F)CN1C(=O)CNC(=O)c1ccnc2ccc(OCCCN3CCN(C(=O)CN4CCN(CC(=O)O)CCN(CC(=O)O)CCN(CC(=O)O)CC4)CC3)cc12 [^68Ga-FAPI-4, metal not drawn], the Effective dose is listed as 0.008–0.015 mSv/MBq. For O=C([O-])CN(CCN(CC(=O)[O-])Cc1cc(CCC(=O)NCCCCCC(=O)NCCCC[C@H](NC(=O)N[C@@H](CCC(=O)O)C(=O)O)C(=O)O)ccc1[O-])Cc1cc(CCC(=O)O)ccc1[O-].[68Ga+3].[OH3+] [^68Ga-PSMA-11], the Effective dose is listed as 0.023 mSv/MBq.
